One data set addresses T1, CYP 1A2 (Homo sapiens, UniProt P05177).
T1 construct: from tissue; host or cells: pooled human liver microsomes (per the earlier reading)
Description: P450 inhibition in pooled human liver microsomes. The class given is in vitro ADME. As to conditions: pooled HLM, NADPH, CYP-specific probe substrates; listed as VU6043653.

A further data set concerns the target T2, CYP 3A4 (Homo sapiens, UniProt P08684).
T2 construct: from tissue; host or cells: pooled human liver microsomes (per the earlier reading)
The data set is described as follows: P450 inhibition in pooled human liver microsomes. Conditions: pooled HLM, NADPH, CYP-specific probe substrates; listed as VU6043653. The class given is in vitro ADME. A general note: Liver microsomes are vesicles of endoplasmic reticulum, rich in cytochrome P450 enzymes.

A short description of data set [1]: Binding in plasma from human (equilibrium dialysis). Type of data set: in vitro ADME. Conditions: human, plasma, read-out: Human fu,plasma. As to the method:
Binding in plasma from rat and human.
Determination of compounds’ fraction unbound (f u) in plasma from rat and human was conducted in vitro via equilibrium dialysis using HTDialysis membrane plates. Dialysis membranes (four paired strips per HTD assay) were hydrated as described by the manufacturer and inserted into the HTD plate, which was assembled and prepared for sample addition by the dispensing of blank buffer (DPBS, 100 µL/well) into the ‘top half’ of each membrane-split well. Each compound was diluted into plasma from each species (5 µM final concentration), which was aliquoted in triplicate to the ‘bottom half’ of the prepared HTD plate wells. The HTD plate was sealed and incubated for 6 hours at 37 °C. Following incubation, each well (both top and bottom halves) were transferred (20 µL) to the corresponding wells of a 96-shallow-well (V-bottom) plate. The daughter plates were then matrix-matched (buffer side wells received equal volume of plasma, and plasma side wells received equal volume of buffer), and extraction solution (120 µL; acetonitrile containing 50 nM carbamazepine as IS) was added to all wells of both daughter plates to precipitate protein and extract test article. The plates were then sealed and centrifuged (3500 rcf) for 10 minutes at ambient temperature. Supernatant (60 µL) from each well of the daughter plates was then transferred to the corresponding wells of new daughter plates (96-shallow-well, V bottom) containing water (Milli-Q, 60 µL/well), and the plates were sealed in preparation for LC-MS/MS analysis (see below). fu was calculated as (analyte to IS MS peak area ratio from Trans-buffer side) / (analyte to IS MS peak area ratio from Cis-plasma side). Mean values for each species were calculated from 3 replicates. […]
(§1) Mean values for each species were calculated from 3 replicates. […]
After 5 minutes (pre-incubation), reactions were initiated by addition of nicotinamide adenine dinucleotide phosphate (NADPH, 1 mM final concentration). At selected time intervals (0, 3, 7, 15, 25, and 45 minutes) post-addition of NADPH, aliquots (50 µL) were taken and placed into a 96-shallow-well plate containing ice cold acetonitrile (150 µL) with carbamazepine (IS, 50 nM). The plates were then centrifuged (3000 rcf at 4 °C) for 10 minutes. The supernatants were transferred to a new 96-shallow-well daughter plate and diluted (1:1 v/v) with water (Milli-Q filtered). The plates were then sealed in preparation for LC-MS/MS analysis (see below).

Data set [2] in a line: Binding in brain homogenate from rat (equilibrium dialysis). Type of data set: in vitro ADME. Conditions: rat, brain homogenate, rat brain homogenates, read-out: Rat fu,brain. How it is done: transferred to the corresponding wells of new daughter plates (96-shallow-well, V bottom) containing water (Milli-Q, 60 µL/well), and the plates were sealed in preparation for LC-MS/MS analysis (see below). fu was calculated as (analyte to IS MS peak area ratio from Trans-buffer side) / (analyte to IS MS peak area ratio from Cis-plasma side). Mean values for each species were calculated from 3 replicates.
Binding in brain homogenate from rat.
Determination of fraction unbound (f u) in brain homogenate from rat was conducted using the same methodology and procedure than described for plasma protein binding assay with the following modifications: 1) a final compound concentration of 1 μM was used, 2) naïve rat brains were homogenized in DPBS (1:3 composition of brain: DPBS, w/w) using a Mini-Bead Beater™ machine in order to obtain […]
The diluted fraction unbound (f u2) in brain was calculated as (analyte to IS MS peak area ratio from Trans-buffer side) / (analyte to IS MS peak area ratio from Cis-brain homogenate side). Undiluted fraction unbound for the brain was calculated using the following equation: […]
as §1
For orientation: In equilibrium dialysis free small molecules cross a membrane that holds back macromolecules.

Data set [3] in a line: IV plasma-brain level determination (PBL) in rat. Type of data set: in vivo. As to conditions: male, Sprague-Dawley, brain and plasma, SD rat, 0.2 mg/kg IV.
Data set [4] can be described thus: Hepatocyte metabolism study. The class given is in vitro ADME. Conditions: dog hepatocytes, more so than any other species tested. An excerpt: (§2) Nonetheless, as a non-aryl/heterobiaryl acetylene mGlu5 NAM with an encouraging in vivo rodent PK profile, we wished to further assess VU6043653 as a novel chemotype. Therefore, we compared metabolites in multiple species to better understand species differences in clearance and metabolism. […] Consistent with the high plasma clearance observed in dogs, high turnover was observed more so in dog hepatocytes than any other species tested (see the Supporting Information for additional details and results). To further evaluate our novel chemotype, the off-target and safety/toxicity profiles for this compound were further investigated.
Table S3. Tentatively Identified Metabolites of VU6043653 in Rat, Dog, Monkey, and Human Hepatocytes (10 μM incubation for 0 and 4 hours). […]
metabolite observed with rat, dog, monkey, and human hepatocytes was M1. Overall, the major pathways for VU6043653 appear to be oxidation, demethylation, and glucuronidation.
(1 picture or pasted object on this page, not shown here)

Another data set has as its system Imidazoline I2, Central. The data set is described as follows: Lead Profiling Screen, Eurofins Panlabs. The class given is binding. Conditions: rat.
Description: as §2
Table S2. Lead Profiling Screen – Eurofins Panlabs for VU6043653.
Assay Name Species % inh at 10 μM […]
Imidazoline I2, Central rat -1

In data set [5] the target is Leukotriene, Cysteinyl CysLT1 (Homo sapiens, UniProt Q9Y271). Description: Lead Profiling Screen, Eurofins Panlabs. Type of data set: binding. Conditions: Cysteinyl CysLT1, hum, read-out: % inh at 10 μM.
Leukotriene, Cysteinyl CysLT1, sequence (Q9Y271 whole entry): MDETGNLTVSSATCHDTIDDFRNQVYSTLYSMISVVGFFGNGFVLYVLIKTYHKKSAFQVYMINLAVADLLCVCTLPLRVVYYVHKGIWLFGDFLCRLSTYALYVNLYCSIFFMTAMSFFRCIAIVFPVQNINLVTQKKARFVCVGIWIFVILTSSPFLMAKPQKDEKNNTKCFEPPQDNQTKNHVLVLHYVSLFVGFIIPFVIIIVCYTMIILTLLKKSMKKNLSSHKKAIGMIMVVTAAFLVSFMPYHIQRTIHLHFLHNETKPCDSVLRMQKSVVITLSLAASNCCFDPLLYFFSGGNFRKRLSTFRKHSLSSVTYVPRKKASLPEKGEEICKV
Another data set addresses Muscarinic M1 (Homo sapiens, UniProt P11229). The data set is described as follows: Lead Profiling Screen, Eurofins Panlabs. The class given is binding. As to conditions: Muscarinic M1, hum, read-out: % inh at 10 μM.
In a further data set the target is Muscarinic M2 (Homo sapiens, UniProt P08172). Description: Lead Profiling Screen, Eurofins Panlabs. Type of data set: binding. Conditions: Muscarinic M2, hum, read-out: % inh at 10 μM.
Muscarinic M2, sequence (P08172 whole entry): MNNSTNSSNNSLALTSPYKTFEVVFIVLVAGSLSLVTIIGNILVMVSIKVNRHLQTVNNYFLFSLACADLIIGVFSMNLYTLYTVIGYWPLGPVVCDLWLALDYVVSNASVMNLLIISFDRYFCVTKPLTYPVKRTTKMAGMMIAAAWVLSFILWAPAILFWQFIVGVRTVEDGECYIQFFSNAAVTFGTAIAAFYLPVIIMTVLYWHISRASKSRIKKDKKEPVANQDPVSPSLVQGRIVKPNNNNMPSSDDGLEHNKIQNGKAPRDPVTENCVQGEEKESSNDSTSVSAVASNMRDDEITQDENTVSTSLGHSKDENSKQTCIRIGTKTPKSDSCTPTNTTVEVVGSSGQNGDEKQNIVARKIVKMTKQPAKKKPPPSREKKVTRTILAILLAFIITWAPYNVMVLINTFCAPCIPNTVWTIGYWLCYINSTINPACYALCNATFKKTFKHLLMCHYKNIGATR
Data set [6] has as its target Serotonin (5-Hydroxytryptamine) 5-HT1A (Homo sapiens, UniProt P08908). The data set is described as follows: Lead Profiling Screen, Eurofins Panlabs. The class given is binding. As to conditions: Serotonin 5-HT1A, hum, read-out: % inh at 10 μM.
Data set [7] addresses Serotonin (5-Hydroxytryptamine) 5-HT3 (Homo sapiens, UniProt P46098). Description: Lead Profiling Screen, Eurofins Panlabs. Conditions: Serotonin 5-HT3, hum, read-out: % inh at 10 μM. Type of data set: binding.
A further data set addresses Sigma σ1 (Homo sapiens, UniProt Q99720). Description: Lead Profiling Screen, Eurofins Panlabs. Conditions: Sigma σ1, hum, read-out: % inh at 10 μM. The class given is binding.

Each structure is given as a SMILES string.

T2 sequence (P08684 whole entry): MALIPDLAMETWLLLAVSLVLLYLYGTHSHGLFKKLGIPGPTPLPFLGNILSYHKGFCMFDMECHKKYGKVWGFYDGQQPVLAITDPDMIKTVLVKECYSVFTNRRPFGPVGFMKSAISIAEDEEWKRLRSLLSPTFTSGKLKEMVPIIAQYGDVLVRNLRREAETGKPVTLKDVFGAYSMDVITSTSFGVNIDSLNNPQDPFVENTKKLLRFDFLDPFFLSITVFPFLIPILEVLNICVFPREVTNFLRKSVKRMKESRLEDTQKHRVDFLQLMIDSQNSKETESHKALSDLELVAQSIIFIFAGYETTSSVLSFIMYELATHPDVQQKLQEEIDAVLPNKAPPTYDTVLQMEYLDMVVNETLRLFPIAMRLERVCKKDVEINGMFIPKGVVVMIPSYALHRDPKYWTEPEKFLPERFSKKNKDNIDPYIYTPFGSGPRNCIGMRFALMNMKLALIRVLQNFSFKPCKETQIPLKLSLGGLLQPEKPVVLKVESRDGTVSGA
T1 sequence (P05177 whole entry): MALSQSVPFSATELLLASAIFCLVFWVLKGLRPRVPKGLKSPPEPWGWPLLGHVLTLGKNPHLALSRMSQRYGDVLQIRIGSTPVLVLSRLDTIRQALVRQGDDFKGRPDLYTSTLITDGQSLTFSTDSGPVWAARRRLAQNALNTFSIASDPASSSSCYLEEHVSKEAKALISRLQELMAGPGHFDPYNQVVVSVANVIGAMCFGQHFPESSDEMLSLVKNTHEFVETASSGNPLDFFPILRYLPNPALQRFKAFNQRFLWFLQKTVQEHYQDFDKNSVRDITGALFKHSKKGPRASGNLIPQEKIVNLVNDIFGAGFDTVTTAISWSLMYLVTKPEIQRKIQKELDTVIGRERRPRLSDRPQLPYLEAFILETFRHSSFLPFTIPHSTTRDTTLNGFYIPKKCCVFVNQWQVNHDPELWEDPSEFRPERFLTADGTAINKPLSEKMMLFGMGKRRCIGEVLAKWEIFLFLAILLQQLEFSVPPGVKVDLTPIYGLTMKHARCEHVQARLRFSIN
Sigma σ1, sequence (Q99720 whole entry): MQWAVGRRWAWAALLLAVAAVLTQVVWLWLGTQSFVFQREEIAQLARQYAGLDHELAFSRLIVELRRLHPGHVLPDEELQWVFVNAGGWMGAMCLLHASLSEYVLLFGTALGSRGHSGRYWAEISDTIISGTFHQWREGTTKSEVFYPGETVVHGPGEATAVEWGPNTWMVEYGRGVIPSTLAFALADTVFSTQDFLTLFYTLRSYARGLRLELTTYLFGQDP
Serotonin (5-Hydroxytryptamine) 5-HT3, sequence (P46098 24-478): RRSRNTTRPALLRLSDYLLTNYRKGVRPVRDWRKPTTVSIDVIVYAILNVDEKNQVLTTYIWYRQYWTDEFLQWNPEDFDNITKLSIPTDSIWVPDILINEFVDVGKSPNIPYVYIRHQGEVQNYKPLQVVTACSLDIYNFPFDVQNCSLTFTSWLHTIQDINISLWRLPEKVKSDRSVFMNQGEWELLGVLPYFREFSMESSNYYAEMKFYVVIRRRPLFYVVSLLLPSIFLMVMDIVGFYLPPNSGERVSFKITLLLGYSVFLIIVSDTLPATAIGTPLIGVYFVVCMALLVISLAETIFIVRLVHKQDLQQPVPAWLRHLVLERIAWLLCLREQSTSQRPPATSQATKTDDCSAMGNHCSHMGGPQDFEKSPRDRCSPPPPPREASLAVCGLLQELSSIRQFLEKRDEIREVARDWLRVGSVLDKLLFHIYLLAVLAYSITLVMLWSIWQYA
Muscarinic M1, sequence (P11229 whole entry): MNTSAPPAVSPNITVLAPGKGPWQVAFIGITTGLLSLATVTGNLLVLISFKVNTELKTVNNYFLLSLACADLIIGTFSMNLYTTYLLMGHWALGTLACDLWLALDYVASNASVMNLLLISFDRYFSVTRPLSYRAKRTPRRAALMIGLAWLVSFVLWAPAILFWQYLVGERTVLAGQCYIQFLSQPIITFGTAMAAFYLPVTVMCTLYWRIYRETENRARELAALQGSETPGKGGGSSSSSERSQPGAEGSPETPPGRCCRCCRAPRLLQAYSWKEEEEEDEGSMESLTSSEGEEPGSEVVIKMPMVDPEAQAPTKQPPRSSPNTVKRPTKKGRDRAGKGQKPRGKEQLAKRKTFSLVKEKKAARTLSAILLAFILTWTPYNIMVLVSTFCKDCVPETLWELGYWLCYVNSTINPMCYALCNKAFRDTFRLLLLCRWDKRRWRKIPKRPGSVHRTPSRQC
Serotonin (5-Hydroxytryptamine) 5-HT1A, sequence (P08908 whole entry): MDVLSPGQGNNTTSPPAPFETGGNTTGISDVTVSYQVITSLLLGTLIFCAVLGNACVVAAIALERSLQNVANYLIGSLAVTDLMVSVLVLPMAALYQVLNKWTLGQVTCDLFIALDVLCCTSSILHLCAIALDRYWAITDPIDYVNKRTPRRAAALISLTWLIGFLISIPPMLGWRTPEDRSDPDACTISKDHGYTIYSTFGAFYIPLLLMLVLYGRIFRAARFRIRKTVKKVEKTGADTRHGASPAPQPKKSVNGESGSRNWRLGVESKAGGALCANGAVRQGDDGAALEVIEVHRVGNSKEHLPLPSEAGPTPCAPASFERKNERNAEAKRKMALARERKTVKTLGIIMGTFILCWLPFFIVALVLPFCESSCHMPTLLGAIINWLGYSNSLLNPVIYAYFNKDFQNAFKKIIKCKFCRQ

`Cc1cc(Oc2cnn(C)c2)cc(C(=O)Nc2ccc(F)cn2)n1` [22iA]: the IC50 against CYP 1A2 and on CYP 3A4 was at least 30 µM in each case. Besides, the fraction unbound at 6 h, 5 µM in data set [1] was determined as 0.059. In data set [2], the fraction unbound at 6 h, 1 µM turned out to be 0.012. Moreover, the partition ratio (Kp) at 0.25 h in [3] (total brain-to-plasma partition ratio) was 1.68. In [3] (unbound brain-to-plasma partition ratio), the Kp uu at 0.25 h is 0.34. Also, in data set [4], the turnover in hepatocytes entry is listed as “high turnover”. Further, the “% inh at 10 μM” value with Imidazoline I2, Central is on record as -1%. Also, the inhibition at 10 µM in data set [5] was 7%; on Muscarinic M1, -13%; on Muscarinic M2, -2%; in data set [6] it was 3%; in data set [7], -6%; at Sigma σ1, 0%.

What is called IC50 is the concentration that gives 50% inhibition. Read a high IC50 as weaker potency in that assay. As a reminder, the Kp is tissue or fluid exposure divided by exposure in the circulation.

(Values after article PMC11647725, “Discovery of 4-(5-Membered)Heteroarylether-6-methylpicolinamide Negative Allosteric Modulators of Metabotropic Glutamate Receptor Subtype 5” (ACS Medicinal Chemistry Letters, 2024).)
